Experimental findings from US20230086702A1, “SUBSTITUTED 2-AMINO-PYRAZOLYL-[1,2,4]TRIAZOLO[1,5A]PYRIDINE DERIVATIVES AND USE THEREOF” (The Johns Hopkins University, priority 2019, published 2023) are described below.

Molecules are shown by their SMILES.

Usually IC50 stands for the concentration that inhibits the measured activity by half. The low end stands for greater potency, the high end for weaker potency.

In assay [1] the target is T1, LZK (Homo sapiens, UniProt O43283).
T1 construct: 10 nM LZK, catalytic domain, Carna Biosiences in assay buffer; purchased Carna Biosciences ('Carna Biosiences' [sic])
T1 sequence (O43283 168-409 limits assumed): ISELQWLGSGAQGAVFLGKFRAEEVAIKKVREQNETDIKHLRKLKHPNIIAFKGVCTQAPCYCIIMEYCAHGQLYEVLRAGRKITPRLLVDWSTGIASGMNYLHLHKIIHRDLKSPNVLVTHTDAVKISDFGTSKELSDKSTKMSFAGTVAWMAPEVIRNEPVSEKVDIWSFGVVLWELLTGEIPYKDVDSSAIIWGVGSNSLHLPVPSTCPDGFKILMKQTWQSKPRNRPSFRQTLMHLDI
Description: LZK biochemical assay (TR-FRET, MKK7 phosphorylation). The protocol: (§1) LZK assay is a biochemical assay format designed to screen for inhibitors of LZK. Enzymatic activity of LZK is measured by monitoring phosphorylation of the physiological substrate MKK7 (MAP2K7, Dual specificity mitogen-activated protein kinase kinase 7). Phosphorylation is detected by a TR-FRET system whereby His-tagged MKK7 is labeled by a XL665-labeled anti-His antibody (FRET acceptor, emission 665 nm). LZK phosphorylates MKK7 at T275/S277 which is detected by an Eu-labeled anti-phospho-MKK7 (T275/S277) antibody (FRET donor, excitation 340 nm). Phosphorylation of MKK7 results in an increased TR-FRET signal (Ratio XL665-channel/Eu-channel) and inhibition of enzymatic activity of LZK decreases the TR-FRET signal.
Assay Protocol for 384 low volume MTP format: 1 μl of test compound is pipetted into test plate; +5 μl LZK solution (10 nM LZK, catalytic domain, Carna Biosiences in assay buffer); +5 μl substrate solution (15 nM MKK7, LDB; 15 μM ATP, in assay buffer); 90 min incubation at RT; +5 μl detection mix (20 nM XL665-labeled anti-His antibody, Cisbio; 0.4 nM Eu-labeled anti-phospho-MKK7 (T275/S277), Cisbio/Millipore in detection buffer); 16 h incubation at 32° C.; endpoint measurement BMG (HTRF).
(§2) All indicated concentrations final concentrations.
(§3) Assay buffer (384 format): 50 mM Hepes pH 7.5, 10 mM MgCl2, 1 mM EGTA, 1 mM DTT, 0.01% Triton X-100, 0.01% BSA, 1:500 Smart Block.
(§4) Detection buffer: 25 mM Tris/HCl pH 7.5, 100 mM EDTA, 100 mM NaCl, 200 mM KF, 0.01% Tween 20, 1:500 Smart Block.

The target of assay [2] is T2, DLK (Homo sapiens, UniProt Q12852).
T2 construct: 10 nM DLK, catalytic domain, Carna Biosiences; purchased Carna Biosciences ('Carna Biosiences' [sic])
T2 sequence (Q12852 125-366 limits assumed): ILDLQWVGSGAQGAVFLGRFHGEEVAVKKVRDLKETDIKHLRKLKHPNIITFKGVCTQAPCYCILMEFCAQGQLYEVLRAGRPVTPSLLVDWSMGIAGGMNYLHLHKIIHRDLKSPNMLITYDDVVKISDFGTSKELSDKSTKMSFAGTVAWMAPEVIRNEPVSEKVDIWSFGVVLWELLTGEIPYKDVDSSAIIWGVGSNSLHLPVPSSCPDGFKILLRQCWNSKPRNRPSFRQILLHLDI
Description: DLK biochemical assay (TR-FRET, MKK7 phosphorylation). How it is done:
as §1, with “DLK assay” for “LZK assay”, “of DLK.” for “of LZK.”, “of DLK” for “of LZK”, “nm). DLK” for “nm). LZK”, “at T275/S277,” for “at T275/S277”
Assay Protocol for 1536 MTP format: test compounds are predispensed (60 nl) in test plates; +3 μl DLK solution (10 nM DLK, catalytic domain, Carna Biosiences, 0.6 mM DTT in assay buffer); +2 μl substrate solution (15 nM MKK7, LDB; 60 μM ATP; 0.4 mM DTT in assay buffer); 90 min incubation at RT; +2 μl detection mix (5 nM XL665-labeled anti-His antibody, Cisbio; 0.1 nM Eu-labeled anti-phospho-MKK7 (T275/S277), Cisbio/Millipore in detection buffer); 16 h incubation at 37° C.; endpoint measurement BMG (HTRF).
Assay Protocol for 384 low volume MTP format: 1 μl of test compounds is pipetted into test plate; +5 μl DLK solution (10 nM DLK, catalytic domain, Carna Biosiences in assay buffer); +5 μl substrate solution (15 nM MKK7, LDB; 60 μM ATP, in assay buffer); 90 min incubation at RT; +9 μl detection mix (20 nM XL665-labeled anti-His antibody, Cisbio; 0.4 nM Eu-labeled anti-phospho-MKK7 (T275/S277), Cisbio/Millipore in detection buffer); 16 h incubation at 4° C.; endpoint measurement BMG (HTRF).
as §2, §3, §4

`Nc1nc2c(-c3cnn(CC4CC4(F)F)c3)cc(-c3cnn(Cc4ccccc4)c3)cn2n1` (racemic) [II-89, 6-(1-Benzyl-1H-pyrazol-4-yl)-8-{1-[(2,2-difluorocyclopropyl)methyl]-1H-pyrazol-4-yl}[1,2,4]triazolo[1,5-a]pyridin-2-amine]: the figures for the IC50 in assay [1] and in assay [2] were 39 nM and 12 nM, respectively.
For the compound `CCC(c1ccc(C(F)(F)F)cc1)n1cc(-c2cc(-c3cnn(C)c3)c3nc(N)nn3c2)cn1` (racemic) [II-99, 8-(1-Methyl-1H-pyrazol-4-yl)-6-(1-{1-[4-(trifluoromethyl)phenyl]propyl}-1H-pyrazol-4-yl)[1,2,4]triazolo[1,5-a]pyridin-2-amine], the IC50 turned out to be 150 nM in assay [1] and 9.2 nM in assay [2].
With `CCC(c1ccc(N2CCOCC2)cc1)n1cc(-c2cc(-c3cnn(CC(F)(F)F)c3)c3nc(N)nn3c2)cn1` (racemic) [II-102, 6-(1-{1-[4-(Morpholin-4-yl)phenyl]propyl}-1H-pyrazol-4-yl)-8-[1-(2,2,2-trifluoroethyl)-1H-pyrazol-4-yl][1,2,4]triazolo[1,5-a]pyridin-2-amine], the results for the IC50 in assay [1] and in assay [2] were 140 nM and 5.7 nM, respectively.
The like results for `CCC(c1ccc(C(F)F)nc1)n1cc(-c2cc(-c3cnn(CC(F)(F)F)c3)c3nc(N)nn3c2)cn1` (racemic) [II-105, 6-(1-{1-[6-(Difluoromethyl)pyridin-3-yl]propyl}-1H-pyrazol-4-yl)-8-[1-(2,2,2-trifluoroethyl)-1H-pyrazol-4-yl][1,2,4]triazolo[1,5-a]pyridin-2-amine] were, in that order, 42 nM and 9.4 nM.
The like results for `CCC(c1ccc(C(F)(F)F)nc1)n1cc(-c2cc(-c3cnn(CC(F)F)c3)c3nc(N)nn3c2)cn1` (racemic) [II-108, 8-[1-(2,2-Difluoroethyl)-1H-pyrazol-4-yl]-6-(1-{1-[6-(trifluoromethyl)pyridin-3-yl]propyl}-1H-pyrazol-4-yl)[1,2,4]triazolo[1,5-a]pyridin-2-amine] were, in that order, 37 nM and 6.3 nM.
The like results for `CCC(c1ccc(C(F)(F)F)nc1)n1cc(-c2cc(-c3cnn(CC(F)(F)F)c3)c3nc(N)nn3c2)cn1` (racemic) [II-111, 8-[1-(2,2,2-trifluoroethyl)-1H-pyrazol-4-yl]-6-(1-{1-[6-(trifluoromethyl)pyridin-3-yl]propyl}-1H-pyrazol-4-yl)[1,2,4]triazolo[1,5-a]pyridin-2-amine] were, in that order, 34 nM and 14 nM.
As to `CCC(c1ccc(OC(F)(F)F)nc1)n1cc(-c2cc(-c3cnn(CC(F)(F)F)c3)n3nc(N)nc3c2)cn1` (racemic) [II-114, 5-[1-(2,2,2-Trifluoroethyl)-1H-pyrazol-4-yl]-7-(1-{1-[6-(trifluoromethoxy)pyridin-3-yl]propyl}-1H-pyrazol-4-yl)[1,2,4]triazolo[1,5-a]pyridin-2-amine], the IC50 was determined as 42 nM in assay [1] and 46 nM in assay [2].
The like results for `Nc1nc2c(-c3cnn(CC(F)(F)F)c3)cc(-c3cnn(C(c4ccc(C(F)(F)F)nc4)C4CCOCC4)c3)cn2n1` (racemic) [II-117, 6-(1-{Tetrahydro-2H-pyran-4-yl[6-(trifluoromethyl)pyridin-3-yl]methyl}-1H-pyrazol-4-yl)-8-[1-(2,2,2-trifluoroethyl)-1H-pyrazol-4-yl][1,2,4]triazolo[1,5-a]pyridin-2-amine] were, in that order, 29 nM and 3.8 nM.
With `Nc1nc2cc(-c3cnn(C(c4ccc(C(F)(F)F)nc4)C4CCOCC4)c3)cc(-c3cn(CC(F)(F)F)c(=O)cn3)n2n1` (racemic) [II-194, 5-[2-Amino-7-(1-{tetrahydro-2H-pyran-4-yl[6-(trifluoromethyl)pyridin-3-yl]methyl}-1H-pyrazol-4-yl)[1,2,4]triazolo[1,5-a]pyridin-5-yl]-1-(2,2,2-trifluoroethyl)pyrazin-2(1H)-one], the figures for the IC50 in assay [1] and in assay [2] were 17 nM and 3.6 nM, respectively.
The like results for `CCC(c1ccc(C(F)(F)F)nc1)n1cc(-c2cc(-c3cc(CO)ccc3Cl)c3nc(N)nn3c2)cn1` (single isomer, unassigned) [II-2, {3-[2-Amino-6-(1-{1-[6-(trifluoromethyl)pyridin-3-yl]propyl}-1H-pyrazol-4-yl)[1,2,4]triazolo[1,5-a]pyridin-8-yl]-4-chlorophenyl}methanol] were, in that order, 30 nM and 170 nM.
Take `CCC(c1ccc(C(F)(F)F)nc1)n1cc(-c2cc(-c3cc(CO)ccc3Cl)c3nc(N)nn3c2)cn1` (single isomer, unassigned) [II-3, {3-[2-Amino-6-(1-{1-[6-(trifluoromethyl)pyridin-3-yl]propyl}-1H-pyrazol-4-yl)[1,2,4]triazolo[1,5-a]pyridin-8-yl]-4-chlorophenyl}methanol]: the IC50 in assay [1] was 6.4 nM; in assay [2], 12 nM.
For the compound `Nc1nc2c(-c3cc(CO)ccc3Cl)cc(-c3cnn(C(c4ccc(C(F)(F)F)nc4)C4CCOCC4)c3)cn2n1` (single isomer, unassigned) [II-5, {3-[2-Amino-6-(1-{tetrahydro-2H-pyran-4-yl[6-(trifluoromethyl)pyridin-3-yl]methyl}-1H-pyrazol-4-yl)[1,2,4]triazolo[1,5-a]pyridin-8-yl]-4-chlorophenyl}methanol], the values for the IC50 in assay [1] and in assay [2] were 1.7 nM and 2.3 nM, respectively.
For `Nc1nc2c(-c3cc(CO)ccc3Cl)cc(-c3cnn(C(c4ccc(C(F)(F)F)nc4)C4CCOCC4)c3)cn2n1` (single isomer, unassigned) [II-6, {3-[2-Amino-6-(1-{tetrahydro-2H-pyran-4-yl[6-(trifluoromethyl)pyridin-3-yl]methyl}-1H-pyrazol-4-yl)[1,2,4]triazolo[1,5-a]pyridin-8-yl]-4-chlorophenyl}methanol], the IC50 in assay [1] turned out to be 6.7 nM; in assay [2], 46 nM.
The like results for `CCC(c1ccc(C(F)(F)F)nc1)n1cc(-c2cc(-c3cccc(C(C)(C)O)c3)c3nc(N)nn3c2)cn1` (single isomer, unassigned) [II-8, 2-{3-[2-Amino-6-(1-{1-[6-(trifluoromethyl)pyridin-3-yl]propyl}-1H-pyrazol-4-yl)[1,2,4]triazolo[1,5-a]pyridin-8-yl]phenyl}propan-2-ol] were, in that order, 7.9 nM and 3.7 nM.
The like results for `CCC(c1ccc(C(F)(F)F)nc1)n1cc(-c2cc(-c3cccc(C(C)(C)O)c3)c3nc(N)nn3c2)cn1` (single isomer, unassigned) [II-9, 2-{3-[2-Amino-6-(1-{1-[6-(trifluoromethyl)pyridin-3-yl]propyl}-1H-pyrazol-4-yl)[1,2,4]triazolo[1,5-a]pyridin-8-yl]phenyl}propan-2-ol] were, in that order, 2.3 nM and 1 nM.
